Test results reported in patent publication US6545182B2, “Methods and compositions for modulating alpha adrenergic receptor activity” (Allergan Sales, Inc., priority 2000, dated 2003).

What was measured:
Type in all cases: cell-based
[1] = biological target: T1, alpha 2A adrenergic receptor (Homo sapiens, UniProt P08913); assay: RSAT (Receptor Selection and Amplification Technology) assay, alpha 2A; settings: for EC50: NIH-3T3 cells cotransfected with receptor and Gq/i5; for efficacy or intrinsic activity (value in parentheses) Alpha 2A: ratio of maximal effect to that of standard full agonist brimonidine
T1 construct: expressed in transfected cells; host or cells: NIH-3T3 cells, transient cotransfection by calcium phosphate
T1 sequence (P08913 1-465): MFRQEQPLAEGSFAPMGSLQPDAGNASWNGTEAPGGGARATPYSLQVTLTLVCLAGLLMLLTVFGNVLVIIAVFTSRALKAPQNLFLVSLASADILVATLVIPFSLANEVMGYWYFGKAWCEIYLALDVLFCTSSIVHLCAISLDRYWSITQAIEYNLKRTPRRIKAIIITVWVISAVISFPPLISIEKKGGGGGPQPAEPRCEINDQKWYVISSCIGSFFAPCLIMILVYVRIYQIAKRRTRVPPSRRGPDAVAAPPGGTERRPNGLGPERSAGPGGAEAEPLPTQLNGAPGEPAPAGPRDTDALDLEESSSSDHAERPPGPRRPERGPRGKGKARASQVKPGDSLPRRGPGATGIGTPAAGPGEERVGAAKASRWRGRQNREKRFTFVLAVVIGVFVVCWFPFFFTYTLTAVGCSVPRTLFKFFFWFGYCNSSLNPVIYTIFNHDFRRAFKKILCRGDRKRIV
Protocol: (§1) Activity was measured using the RSAT (Receptor Selection and Amplification Technology) assay, developed by Receptor Technologies, Inc. of Winooski, Vt. (now Acadia Pharmaceuticals of San Diego, Calif.), adapted for use with recombinant alpha2 adrenergic receptors in collaboration with Allergan. The assay measures receptor-mediated loss of contact inhibition that results in selective proliferation of receptor-containing cells in a mixed population of confluent cells. The increase in cell number is assessed with an appropriate transfected marker gene such as β-galactosidase, the activity of which can be easily measured in a 96-well format. Receptors that activate the G protein, Gq, elicit this response. Alpha2 receptors, which normally couple to Gi, activate the RSAT response when coexpressed with a hybrid Gq protein that has a Gi receptor recognition domain, called Gq/i5.
(§2) The assay is conducted as follows. NIH-3T3 cells are plated at a density of 2×10^6 cells in 15 cm dishes and maintained in Dulbecco's modified Eagle's medium supplemented with 10% calf serum. One day later, cells are cotransfected by calcium phosphate precipitation with mammalian expression plasmids encoding p-SV-β-galactosidase (5-10 μg), receptor (1-2 μg) and G protein (1-2 μg). 40 μg salmon sperm DNA may also be included in the transfection mixture to increase transfection efficiency. Fresh media is added on the following day and 1-2 days later, cells are harvested and frozen in 50 assay aliquots. Transfectant cells are thawed and 100 μl added to 100 μl aliquots of various concentrations of drugs in triplicate in 96-well dishes. Incubations continue 72-96 hr at 37°. After washing with phosphate-buffered saline, β-galactosidase enzyme activity is determined by adding 200 μl of the chromogenic substrate (consisting of 3.5 mM o-nitrophenyl-β-D-galactopyranoside and 0.5% of the non-ionic surfactant nonidet P-40 in phosphate buffered saline), incubating overnight at 30° and measuring optical density at 420 nm. The absorbency is a measure of enzyme activity, which depends on cell number and reflects a receptor-mediated cell proliferation. The EC50 and maximal effect of each drug at each alpha2 receptor is determined. The efficacy or intrinsic activity is calculated as a ratio of the maximal effect of the drug to the maximal effect of a standard full agonist for each receptor subtype. Brimonidine, also called UK14304, is used as the standard agonist for the alpha2A, alpha2B and alpha2C receptors. The RSAT assay is also discussed in Messier et al. (1995) High throughput assays of cloned adrenergic, muscarinic, neurokinin and neurotrophin receptors in living mammalian cells, Pharmacol. Toxicol. 76:308-11; see also Conklin et al. (1993) Substitution of three amino acids switches receptor specificity of Gqα to that of Giα, Nature 363:274-6; Both of these papers are incorporated by reference herein.

[2] = biological target: T2, alpha 2B adrenergic receptor (Homo sapiens, UniProt P18089); assay: RSAT (Receptor Selection and Amplification Technology) assay, alpha 2B; settings: for EC50: NIH-3T3 cells cotransfected with receptor and Gq/i5; for efficacy or intrinsic activity (value in parentheses) Alpha 2B: ratio of maximal effect to that of standard full agonist brimonidine
T2 construct: expressed in transfected cells; host or cells: NIH-3T3 cells, transient cotransfection by calcium phosphate
T2 sequence (P18089 1-450): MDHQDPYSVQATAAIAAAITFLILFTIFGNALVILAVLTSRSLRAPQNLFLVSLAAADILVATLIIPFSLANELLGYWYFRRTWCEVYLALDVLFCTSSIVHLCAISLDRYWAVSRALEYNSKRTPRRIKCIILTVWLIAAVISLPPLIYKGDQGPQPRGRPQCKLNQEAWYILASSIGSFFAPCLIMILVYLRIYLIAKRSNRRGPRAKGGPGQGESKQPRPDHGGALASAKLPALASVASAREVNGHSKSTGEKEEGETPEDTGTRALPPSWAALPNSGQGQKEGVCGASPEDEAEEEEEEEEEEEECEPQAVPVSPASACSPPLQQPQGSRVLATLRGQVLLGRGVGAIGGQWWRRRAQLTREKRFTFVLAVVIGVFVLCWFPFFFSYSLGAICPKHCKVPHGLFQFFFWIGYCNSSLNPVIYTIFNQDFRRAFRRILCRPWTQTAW
Protocol: as §1, §2

[3] = biological target: T3, alpha 2C adrenergic receptor (Homo sapiens, UniProt P18825); assay: RSAT (Receptor Selection and Amplification Technology) assay, alpha 2C; settings: for EC50: NIH-3T3 cells cotransfected with receptor and Gq/i5; for efficacy or intrinsic activity (value in parentheses) Alpha 2C: ratio of maximal effect to that of standard full agonist brimonidine
T3 construct: expressed in transfected cells; host or cells: NIH-3T3 cells, transient cotransfection by calcium phosphate
T3 sequence (P18825 1-462): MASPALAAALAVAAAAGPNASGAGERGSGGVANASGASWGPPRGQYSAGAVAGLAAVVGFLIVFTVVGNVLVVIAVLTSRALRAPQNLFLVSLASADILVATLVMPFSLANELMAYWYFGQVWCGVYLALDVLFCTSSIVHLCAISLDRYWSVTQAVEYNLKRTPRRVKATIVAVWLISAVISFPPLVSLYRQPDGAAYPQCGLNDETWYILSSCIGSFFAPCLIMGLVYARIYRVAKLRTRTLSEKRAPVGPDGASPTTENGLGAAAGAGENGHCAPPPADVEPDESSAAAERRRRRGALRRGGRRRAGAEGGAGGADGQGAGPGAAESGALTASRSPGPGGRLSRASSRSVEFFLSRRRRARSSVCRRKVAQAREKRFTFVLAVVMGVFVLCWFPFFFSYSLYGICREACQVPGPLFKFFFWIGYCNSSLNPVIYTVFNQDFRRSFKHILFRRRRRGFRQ
Protocol: as §1, §2

| EC50 [1] | EC50 [2] | efficacy or intrinsic activity (value in parentheses) Alpha 2B [2] | EC50 [3] | efficacy or intrinsic activity (value in parentheses) Alpha 2C [3] | efficacy or intrinsic activity (value in parentheses) Alpha 2A [1] | SMILES |
| --- | --- | --- | --- | --- | --- | --- |
| ≥ 210000 nM | 17 nM | 1.13 | 87 nM | 0.6 |  | OCCNC(=S)NCc1cc(Cl)ccc1F |
| ≥ 210000 nM | 2360 nM | 0.73 | ≥ 210000 nM |  |  | OCCNC(=S)NCc1c(F)c(F)c(F)c(F)c1F |
| ≥ 210000 nM | 523 nM | 0.8 | 853 nM | 0.7 |  | OCCNC(=S)NCc1cc(C(F)(F)F)ccc1F |
| ≥ 210000 nM | 49 nM | 0.76 | 322 nM | 0.68 |  | OCCNC(=S)NCc1cc(I)ccc1F |
| ≥ 210000 nM | 20 nM | 1.0 | 137 nM | 0.63 |  | OCCNC(=S)NCc1cc(F)ccc1Br |
| ≥ 210000 nM | 694 nM | 0.93 | 783 nM | 0.4 |  | OCCNC(=S)NCc1ccccc1C(F)(F)F |
| 295 nM | 14 nM | 0.9 | ≥ 210000 nM |  | 0.3 | OCCNC(=S)NCc1cccc(Br)c1 |
| ≥ 210000 nM | 98 nM | 0.83 | > 2000 nM |  |  | OCCNC(=S)NCc1c(F)ccc(Cl)c1F |
| ≥ 210000 nM | 478 nM | 0.72 | > 2000 nM |  |  | OCCNC(=S)NCc1ccc(F)cc1C(F)(F)F |
| ≥ 210000 nM | 898 nM | 0.40 | ≥ 210000 nM |  |  | COc1cccc(CNC(=S)NCCO)c1 |
| ≥ 210000 nM | 281 nM | 0.58 | ≥ 210000 nM |  |  | OCCNC(=S)NCc1c(F)cc(F)c(Cl)c1F |
| ≥ 210000 nM | 70 nM | 0.49 | ≥ 210000 nM |  |  | OCCNC(=S)NCc1c(Br)ccc(I)c1F |
| ≥ 210000 nM | 138 nM | 1.01 | 786 nM | 0.66 |  | OCCNC(=S)NCc1ccc(F)c(Br)c1F |
| ≥ 210000 nM | 137 nM | 0.68 | 617 nM | 0.37 |  | OCCNC(=S)NCc1c(F)cccc1C(F)(F)F |
| > 2000 nM | 22 nM | 0.73 | 819 nM | 0.56 |  | Cc1cc(Br)c(F)c(CNC(=S)NCCO)c1 |
| > 2000 nM | 429 nM | 1.04 | > 3000 nM |  |  | COc1cccc(CNC(=S)NCCO)c1F |

| EC50 [1] | EC50 [2] | efficacy or intrinsic activity (value in parentheses) Alpha 2B [2] | EC50 [3] | efficacy or intrinsic activity (value in parentheses) Alpha 2C [3] | efficacy or intrinsic activity (value in parentheses) Alpha 2A [1] | SMILES |
| --- | --- | --- | --- | --- | --- | --- |
| ≥ 210000 nM | 13 nM | 0.85 | 53 nM | 0.51 |  | OCCNC(=S)NCc1cc(F)ccc1F |
| ≥ 210000 nM | 169 nM | 0.95 | 843 nM | 0.38 |  | COc1c(F)cccc1CNC(=S)NCCO |
| ≥ 210000 nM | 42 nM | 0.7 | 28 nM | 0.4 |  | CCOc1ccccc1CNC(=S)NCCO |
| 62 nM | 2 nM | 1.35 | 23 nM | 0.91 | 0.85 | OCCNC(=S)NCc1cccc(I)c1F |
| ≥ 210000 nM | 235 nM | 0.92 | 406 nM | 0.43 |  | COc1cccc(F)c1CNC(=S)NCCO |
| ≥ 210000 nM | 44 nM | 0.94 | 1850 nM | 0.54 |  | OCCNC(=S)NCc1c(F)ccc(F)c1Cl |
| ≥ 210000 nM | 48 nM | 0.60 | ≥ 210000 nM |  |  | OCCNC(=S)NCc1c(Br)ccc(F)c1F |
| ≥ 210000 nM | 37 nM | 0.7 | 632 nM | 0.3 |  | OCCNC(=S)NCc1cccc(C(F)(F)F)c1F |
| ≥ 210000 nM | 579 nM | 0.75 | ≥ 210000 nM |  |  | OCCNC(=S)NCc1ccc(F)cc1Cl |
| ≥ 210000 nM | 512 nM | 1.07 | ≥ 210000 nM |  |  | OCCNC(=S)NCc1cc(Br)c(F)c(F)c1F |
| ≥ 210000 nM | 21 nM | 1.26 | 226 nM | 0.7 |  | OCCNC(=S)NCc1ccccc1I |
| ≥ 210000 nM | 181 nM | 0.95 | > 2000 nM |  |  | Cc1ccc(Br)c(F)c1CNC(=S)NCCO |
| ≥ 210000 nM | 115 nM | 0.8 | > 3000 nM |  |  | Cc1ccc(Br)c(CNC(=S)NCCO)c1F |
| ≥ 210000 nM | 117 nM | 1.13 | > 2000 nM |  |  | OCCNC(=S)NCc1cc(Br)cc(Cl)c1F |
| ≥ 210000 nM | 36 nM | 0.97 | 459 nM | 0.58 |  | OCCNC(=S)NCc1cc(Br)ccc1F |
